ChEMBL document CHEMBL5465560, “Selectivity Literature for EUbOPEN Chemogenomic Library” (2024)
One block for each compound: values may come before it.

Key:
[1] = test system: Tyrosine-protein kinase ABL1 (Homo sapiens), P00519 [T315I]; conditions: at 10 µM
[2] = target: T1, Serine/threonine-protein kinase greatwall (Homo sapiens) (UniProt Q96GX5); experiment: Selectivity interaction (LanthaScreen Eu Kinase Binding Assay) EUB0001632a MASTL; conditions: at 10 µM
T1 sequence (whole entry): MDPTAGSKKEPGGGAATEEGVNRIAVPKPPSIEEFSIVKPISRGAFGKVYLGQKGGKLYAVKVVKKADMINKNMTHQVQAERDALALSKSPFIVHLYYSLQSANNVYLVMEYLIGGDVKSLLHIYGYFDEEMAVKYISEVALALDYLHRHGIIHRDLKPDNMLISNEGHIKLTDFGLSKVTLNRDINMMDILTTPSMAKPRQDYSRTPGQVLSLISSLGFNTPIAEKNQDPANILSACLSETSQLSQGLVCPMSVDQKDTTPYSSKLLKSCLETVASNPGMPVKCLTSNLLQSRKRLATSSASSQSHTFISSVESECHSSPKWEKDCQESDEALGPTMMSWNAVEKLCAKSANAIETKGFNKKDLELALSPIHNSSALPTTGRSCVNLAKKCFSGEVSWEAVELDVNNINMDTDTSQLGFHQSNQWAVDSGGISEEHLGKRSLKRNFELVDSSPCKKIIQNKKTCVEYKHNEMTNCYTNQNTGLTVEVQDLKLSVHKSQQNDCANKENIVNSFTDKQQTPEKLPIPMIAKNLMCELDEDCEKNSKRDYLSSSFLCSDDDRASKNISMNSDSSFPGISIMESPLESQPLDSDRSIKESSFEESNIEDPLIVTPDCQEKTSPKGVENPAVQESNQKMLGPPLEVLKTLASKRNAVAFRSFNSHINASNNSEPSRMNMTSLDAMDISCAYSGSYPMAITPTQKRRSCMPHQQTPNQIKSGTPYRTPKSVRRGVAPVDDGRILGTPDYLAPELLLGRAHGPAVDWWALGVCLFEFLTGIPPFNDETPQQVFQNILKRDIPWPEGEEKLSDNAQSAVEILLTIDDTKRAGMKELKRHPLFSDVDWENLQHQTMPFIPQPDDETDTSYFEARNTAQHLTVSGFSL

[3] = target: MAP kinase-interacting serine/threonine-protein kinase 1 (Homo sapiens) (UniProt Q9BUB5); experiment: Selectivity interaction (KinomeScan (DiscoverX)) EUB0001079a MKNK1; conditions: at 1 µM
Aurora kinase B = Aurora kinase B (Homo sapiens, UniProt Q96GD4); experiment: Selectivity interaction (KinomeScan (DiscoverX)) EUB0001079a AURKB; conditions: at 1 µM
[4] = target: T2, Ephrin type-B receptor 3 (Homo sapiens) (UniProt P54753); experiment: Selectivity interaction (KinomeScan (DiscoverX)) EUB0000092b EPHB3; conditions: at 10 µM
T2 sequence (whole entry): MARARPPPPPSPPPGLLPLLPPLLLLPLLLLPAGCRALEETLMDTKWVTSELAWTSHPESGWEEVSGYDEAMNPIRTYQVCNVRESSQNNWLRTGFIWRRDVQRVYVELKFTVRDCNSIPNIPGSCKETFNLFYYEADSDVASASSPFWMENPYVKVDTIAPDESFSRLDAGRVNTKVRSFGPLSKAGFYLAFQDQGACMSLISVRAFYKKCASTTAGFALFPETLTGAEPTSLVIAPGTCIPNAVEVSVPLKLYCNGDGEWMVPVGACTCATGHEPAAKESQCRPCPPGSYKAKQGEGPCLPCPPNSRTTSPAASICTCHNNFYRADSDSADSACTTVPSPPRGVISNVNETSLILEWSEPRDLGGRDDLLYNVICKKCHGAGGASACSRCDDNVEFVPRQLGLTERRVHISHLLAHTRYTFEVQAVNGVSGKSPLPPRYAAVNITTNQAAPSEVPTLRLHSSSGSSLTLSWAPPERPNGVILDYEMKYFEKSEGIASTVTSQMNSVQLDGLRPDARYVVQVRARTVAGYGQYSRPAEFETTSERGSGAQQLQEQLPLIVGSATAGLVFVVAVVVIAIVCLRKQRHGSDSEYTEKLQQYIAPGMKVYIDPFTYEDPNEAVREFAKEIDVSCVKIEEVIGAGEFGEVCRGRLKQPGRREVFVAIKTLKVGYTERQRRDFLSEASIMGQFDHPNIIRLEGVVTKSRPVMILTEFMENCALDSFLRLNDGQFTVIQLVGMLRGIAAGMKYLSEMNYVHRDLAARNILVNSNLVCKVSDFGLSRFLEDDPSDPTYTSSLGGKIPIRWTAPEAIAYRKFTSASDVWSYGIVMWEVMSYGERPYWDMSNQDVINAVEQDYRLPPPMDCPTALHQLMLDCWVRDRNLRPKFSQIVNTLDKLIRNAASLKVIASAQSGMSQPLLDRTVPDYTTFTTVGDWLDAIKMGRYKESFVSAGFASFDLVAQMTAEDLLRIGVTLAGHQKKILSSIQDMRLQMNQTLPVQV

[5] = target: Tyrosine-protein kinase CSK (Homo sapiens) (UniProt P41240); experiment: Selectivity interaction (ActivX KiNativ screen (ex vivo kinase selectivity in human PBMCs)) EUB0001619a CSK; format: cell-based; conditions: PBMC, at 1 µM
[6] = target: T3, Serine/threonine-protein kinase 4 (Homo sapiens) (UniProt Q13043); experiment: Selectivity interaction (Kinase panel (DSF assay)) EUB0001558a STK4
T3 sequence (whole entry): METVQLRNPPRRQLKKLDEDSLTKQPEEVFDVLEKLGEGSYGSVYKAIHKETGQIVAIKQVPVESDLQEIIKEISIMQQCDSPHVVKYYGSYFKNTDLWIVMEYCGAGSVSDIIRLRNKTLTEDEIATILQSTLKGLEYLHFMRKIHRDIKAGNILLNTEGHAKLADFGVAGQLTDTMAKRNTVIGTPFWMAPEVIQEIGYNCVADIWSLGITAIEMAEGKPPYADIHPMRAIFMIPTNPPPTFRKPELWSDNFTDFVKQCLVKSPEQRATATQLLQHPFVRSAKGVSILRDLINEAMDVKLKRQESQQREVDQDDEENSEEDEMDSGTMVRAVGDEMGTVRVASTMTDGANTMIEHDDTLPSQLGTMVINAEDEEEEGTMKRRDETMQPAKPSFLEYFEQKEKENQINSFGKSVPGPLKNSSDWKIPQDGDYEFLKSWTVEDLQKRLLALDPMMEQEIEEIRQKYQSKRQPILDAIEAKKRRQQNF

Chain of Tyrosine-protein kinase CSK (Homo sapiens) (P41240 2-450 limits assumed): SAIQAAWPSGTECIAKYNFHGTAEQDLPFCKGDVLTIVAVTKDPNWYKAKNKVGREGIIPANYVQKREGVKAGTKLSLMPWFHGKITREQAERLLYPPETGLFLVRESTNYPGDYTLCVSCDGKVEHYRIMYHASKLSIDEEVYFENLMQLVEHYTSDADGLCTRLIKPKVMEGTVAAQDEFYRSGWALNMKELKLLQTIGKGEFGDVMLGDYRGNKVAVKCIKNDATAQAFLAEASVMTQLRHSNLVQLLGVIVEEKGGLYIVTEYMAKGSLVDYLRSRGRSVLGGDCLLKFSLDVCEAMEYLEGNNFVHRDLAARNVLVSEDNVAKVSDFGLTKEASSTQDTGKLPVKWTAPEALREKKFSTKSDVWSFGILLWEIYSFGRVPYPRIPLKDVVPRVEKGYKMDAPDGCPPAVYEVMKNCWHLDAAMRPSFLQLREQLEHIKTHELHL
Chain of MAP kinase-interacting serine/threonine-protein kinase 1 (Homo sapiens) (Q9BUB5 whole entry, looked up): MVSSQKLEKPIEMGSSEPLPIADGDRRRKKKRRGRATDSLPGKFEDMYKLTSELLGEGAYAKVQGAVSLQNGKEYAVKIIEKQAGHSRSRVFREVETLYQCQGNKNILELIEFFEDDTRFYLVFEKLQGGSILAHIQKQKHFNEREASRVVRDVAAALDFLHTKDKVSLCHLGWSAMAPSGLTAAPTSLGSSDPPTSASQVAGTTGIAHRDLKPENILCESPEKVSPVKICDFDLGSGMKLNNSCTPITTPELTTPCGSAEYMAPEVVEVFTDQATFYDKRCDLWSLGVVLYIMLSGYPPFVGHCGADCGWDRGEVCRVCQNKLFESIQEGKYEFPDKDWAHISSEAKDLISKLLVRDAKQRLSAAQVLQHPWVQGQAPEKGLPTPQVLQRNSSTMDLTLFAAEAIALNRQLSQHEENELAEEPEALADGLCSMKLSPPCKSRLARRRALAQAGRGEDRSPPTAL
Chain of Aurora kinase B (Q96GD4 whole entry): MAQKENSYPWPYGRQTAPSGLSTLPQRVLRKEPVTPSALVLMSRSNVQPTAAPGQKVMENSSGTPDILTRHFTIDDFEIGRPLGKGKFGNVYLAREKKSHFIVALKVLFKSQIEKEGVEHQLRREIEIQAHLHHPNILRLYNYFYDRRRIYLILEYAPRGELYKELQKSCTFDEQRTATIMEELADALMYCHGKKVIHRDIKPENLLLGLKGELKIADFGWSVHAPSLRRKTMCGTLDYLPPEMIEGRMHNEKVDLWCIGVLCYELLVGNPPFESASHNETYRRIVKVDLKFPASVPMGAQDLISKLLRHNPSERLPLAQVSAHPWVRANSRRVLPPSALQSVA

Compound: Cc1cc([C@@H](C)Nc2ccccc2C(=O)O)c2nc(N3CCOCC3)cc(=O)n2c1 [AZD-6482]
% of control [1]: 100%

% of inhibition [2]: -42%
Compound: Cn1cc(-n2cnc3c(NCc4nc5cc(Cl)c(Cl)cc5[nH]4)nc(N4CCOCC4)nc32)cn1

Compound: Nc1cnc(N2CCc3cc(S(=O)(=O)Nc4c(F)cc(Cl)cc4F)cc(N4CCCC4=O)c32)nc1 [TP-020n]
% of control [3]: 98% | % of control (Aurora kinase B): 98%

Compound: CCC(=O)N1CCN(c2ccc(-n3c(=O)ccc4cnc5ccc(-c6cnc7ccccc7c6)cc5c43)cc2C(F)(F)F)CC1
% of control [4]: 85%

Compound: N#Cc1cccc(-c2c[nH]c3ncnc(N4CCOCC4)c23)c1
% of inhibition [5]: -45%

Compound: CC(C)(O)[C@H](F)CN1Cc2cc(NC(=O)c3cnn4cccnc34)c(N3CCOCC3)cc2C1=O
dTM [6]: 1.9 K
